Experimental data taken from patent US20250304644A1, “PEPTIDES TRIPLE AGONISTS OF GIP, GLP-1 AND GLP-2” (BAINAN BIOTECH APS, priority 2021, published 2025).
Read-outs that look alike come from different tables or passages of the source. Where a SMILES comes first, the peptide text is derived from it. [ ]: non-standard residue; d: D form. The star is where a group is joined. Decanoyl = CCCCCCCCCC(=O)*; Aib = CC(C)(N)C(=O)O

Key:
Format in all cases: cell-based
human GLP-2R = biological target: T1, human GLP-2R (Homo sapiens, UniProt O95838); assay: cAMP assay (HitHunter) in transiently transfected COS-7 cells expressing human GLP-2R; conditions: for Emax: COS-7, normalized to highest concentration of the endogenous ligand, read-out: Efficacy GLP-2R (Emax)
T1 construct: host or cells: COS-7
T1 sequence (O95838 1-553): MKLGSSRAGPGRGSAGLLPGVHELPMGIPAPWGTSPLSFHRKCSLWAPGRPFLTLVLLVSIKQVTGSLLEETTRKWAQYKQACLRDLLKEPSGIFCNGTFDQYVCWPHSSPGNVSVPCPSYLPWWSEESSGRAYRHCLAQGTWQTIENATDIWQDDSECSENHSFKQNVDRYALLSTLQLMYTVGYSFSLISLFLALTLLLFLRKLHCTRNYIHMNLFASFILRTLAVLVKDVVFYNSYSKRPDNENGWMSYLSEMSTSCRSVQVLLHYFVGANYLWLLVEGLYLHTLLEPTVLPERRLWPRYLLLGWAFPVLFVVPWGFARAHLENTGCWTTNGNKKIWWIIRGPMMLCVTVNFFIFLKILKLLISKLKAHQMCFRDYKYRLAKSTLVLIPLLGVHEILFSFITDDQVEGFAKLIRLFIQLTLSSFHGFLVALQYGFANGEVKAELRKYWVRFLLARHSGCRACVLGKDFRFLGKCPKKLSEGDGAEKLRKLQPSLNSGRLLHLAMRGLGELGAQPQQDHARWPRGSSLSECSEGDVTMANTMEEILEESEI
Experimental: (§1) The next day the assay was initiated by washing with HEPES buffered saline (HBS) and followed by an incubation step with assay buffer (HBS added 1 mM isobutyl-1-methylxanthine (IBMX)) for 30 min at 37° C. The ligands were then added and incubated for an additional 30 min at 37° C. After ligand incubation, the HitHunter® CAMP assay (Eurofins DiscoverX, Fremont, […] USA) was carried out according to the manufacturer's instructions. […] The potencies (EC50 values) were determined by nonlinear regression using GraphPad Prism 9 (San Diego, California, USA). Sigmoid curves were fitted logistically. The efficacies (Emax values) were determined by normalization to the highest concentration applied of the endogenous ligand for each receptor.

human GIPR = biological target: T2, human GIPR (Homo sapiens, UniProt P48546); assay: cAMP assay (HitHunter) in transiently transfected COS-7 cells expressing human GIPR; conditions: for Emax: COS-7, normalized to highest concentration of the endogenous ligand, read-out: Efficacy GIPR (Emax)
T2 construct: host or cells: COS-7
T2 sequence (P48546 22-466): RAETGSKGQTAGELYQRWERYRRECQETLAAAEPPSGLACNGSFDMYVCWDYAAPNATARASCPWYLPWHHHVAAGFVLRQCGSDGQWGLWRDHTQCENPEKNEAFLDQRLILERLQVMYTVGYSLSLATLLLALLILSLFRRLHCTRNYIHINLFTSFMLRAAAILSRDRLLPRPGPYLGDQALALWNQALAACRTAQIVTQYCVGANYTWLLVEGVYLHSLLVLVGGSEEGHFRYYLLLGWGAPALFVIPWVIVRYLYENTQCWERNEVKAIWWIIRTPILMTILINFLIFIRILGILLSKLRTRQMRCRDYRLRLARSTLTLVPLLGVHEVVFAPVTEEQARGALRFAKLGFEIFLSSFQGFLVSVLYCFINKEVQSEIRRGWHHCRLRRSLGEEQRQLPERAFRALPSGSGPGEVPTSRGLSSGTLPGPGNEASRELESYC
Experimental: as §1

human GLP-1R = biological target: T3, human GLP-1R (Homo sapiens, UniProt P43220); assay: cAMP assay (HitHunter) in transiently transfected COS-7 cells expressing human GLP-1R; conditions: for Emax: COS-7, normalized to highest concentration of the endogenous ligand, read-out: Efficacy GLP-1R (Emax)
T3 construct: host or cells: COS-7
T3 sequence (P43220 24-463): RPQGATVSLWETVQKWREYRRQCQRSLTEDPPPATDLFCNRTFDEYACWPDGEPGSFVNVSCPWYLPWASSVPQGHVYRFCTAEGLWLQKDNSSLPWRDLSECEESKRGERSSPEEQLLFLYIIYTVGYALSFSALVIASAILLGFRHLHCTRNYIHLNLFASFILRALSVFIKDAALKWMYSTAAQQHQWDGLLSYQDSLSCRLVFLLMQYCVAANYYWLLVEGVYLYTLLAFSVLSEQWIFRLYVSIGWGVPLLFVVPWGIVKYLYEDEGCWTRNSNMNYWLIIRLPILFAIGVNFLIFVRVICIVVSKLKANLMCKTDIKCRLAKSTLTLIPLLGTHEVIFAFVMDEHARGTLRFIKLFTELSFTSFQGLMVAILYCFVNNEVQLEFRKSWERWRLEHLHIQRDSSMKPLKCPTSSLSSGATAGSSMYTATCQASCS
Experimental: as §1

[1] = cAMP, COS-7 cells, human GLP-1R, read-out: EC50 (nM) GLP-1R
[2] = cAMP, COS-7 cells, human GLP-2R, read-out: EC50 (nM) GLP-2R

Emax (human GLP-2R) [%] | Emax (human GIPR) [%] | EC50 (human GIPR; cAMP, COS-7 cells, human GIPR) [nM] | Emax (human GLP-1R) [%] | EC50 (human GLP-1R; [1]) [nM] | EC50 (human GLP-2R; [2]) [nM] | SMILES | EC50 (human GLP-2R) [nM] | EC50 (human GLP-1R) [nM]
97 | 96 | 0.794 | 95 | 2.82 | – | CCCCCCCCCC(=O)NCCCC[C@H](NC(=O)[C@@H](NC(=O)[C@@H](NC(=O)[C@H](CCCCN)NC(=O)[C@@H](NC(=O)[C@H](CCC(N)=O)NC(=O)[C@@H](NC(=O)[C@H](CC(C)C)NC(=O)[C@H](Cc1c[nH]c2ccccc12)NC(=O)[C@H](CC(N)=O)NC(=O)[C@@H](NC(=O)[C@H](Cc1ccccc1)NC(=O)[C@H](CC(=O)O)NC(=O)[C@H](CCCNC(=N)N)NC(=O)[C@H](C)NC(=O)[C@H](C)NC(=O)[C@H](CC(C)C)NC(=O)[C@H](CC(N)=O)NC(=O)[C@H](CCC(=O)O)NC(=O)[C@H](CC(C)C)NC(=O)[C@@H](NC(=O)[C@@H](NC(=O)[C@H](CO)NC(=O)[C@H](Cc1ccc(O)cc1)NC(=O)[C@H](CC(=O)O)NC(=O)[C@H](CO)NC(=O)[C@@H](NC(=O)[C@H](Cc1ccccc1)NC(=O)[C@@H](NC(=O)CNC(=O)[C@H](CC(=O)O)NC(=O)C(C)(C)NC(=O)[C@@H](N)Cc1c[nH]cn1)[C@@H](C)O)[C@@H](C)CC)[C@@H](C)O)[C@@H](C)CC)[C@@H](C)CC)[C@@H](C)CC)[C@@H](C)O)[C@@H](C)CC)[C@@H](C)O)C(N)=O [Compound 7] (H-H[Aib]DGTFISDYSTILENLAARDFINWLIQTKITK(Decanoyl)-NH2) | – | –
108 | 104 | – | 105 | – | 11.2 | CCCCCCCCCC(=O)NCCCC[C@H](NC(=O)[C@@H](NC(=O)[C@@H](NC(=O)[C@H](CCCCN)NC(=O)[C@@H](NC(=O)[C@H](CCC(N)=O)NC(=O)[C@@H](NC(=O)[C@H](CC(C)C)NC(=O)[C@H](Cc1c[nH]c2ccccc12)NC(=O)[C@H](CCC(=O)O)NC(=O)[C@@H](NC(=O)[C@H](Cc1ccccc1)NC(=O)[C@H](CC(=O)O)NC(=O)[C@H](CCCNC(=N)N)NC(=O)[C@H](C)NC(=O)[C@H](C)NC(=O)[C@H](CC(C)C)NC(=O)[C@H](CC(N)=O)NC(=O)[C@H](CC(=O)O)NC(=O)[C@H](CC(C)C)NC(=O)[C@@H](NC(=O)[C@@H](NC(=O)[C@H](CO)NC(=O)[C@H](Cc1ccc(O)cc1)NC(=O)[C@H](CC(=O)O)NC(=O)[C@H](CO)NC(=O)[C@@H](NC(=O)[C@H](Cc1ccccc1)NC(=O)[C@@H](NC(=O)CNC(=O)[C@H](CC(=O)O)NC(=O)C(C)(C)NC(=O)[C@@H](N)Cc1c[nH]cn1)[C@@H](C)O)[C@@H](C)CC)[C@@H](C)O)[C@@H](C)CC)[C@@H](C)CC)[C@@H](C)CC)[C@@H](C)O)[C@@H](C)CC)[C@@H](C)O)C(N)=O [Compound 9] | – | –
86 | 117 | – | 85 | 25.1 | 25.1 | CCCCCCCCCC(=O)NCCCC[C@H](NC(=O)[C@@H](NC(=O)[C@@H](NC(=O)[C@H](CCCCN)NC(=O)[C@@H](NC(=O)[C@H](CCC(N)=O)NC(=O)[C@@H](NC(=O)[C@H](CC(C)C)NC(=O)[C@H](Cc1c[nH]c2ccccc12)NC(=O)[C@H](CC(N)=O)NC(=O)[C@@H](NC(=O)[C@H](Cc1ccccc1)NC(=O)[C@H](CC(=O)O)NC(=O)[C@H](CCCNC(=N)N)NC(=O)[C@H](C)NC(=O)[C@H](C)NC(=O)[C@H](CC(C)C)NC(=O)[C@H](CC(N)=O)NC(=O)[C@H](CC(=O)O)NC(=O)[C@H](CC(C)C)NC(=O)[C@H](CCC(=O)O)NC(=O)[C@@H](NC(=O)[C@H](CO)NC(=O)[C@H](Cc1ccc(O)cc1)NC(=O)[C@H](CC(=O)O)NC(=O)[C@H](CO)NC(=O)[C@@H](NC(=O)[C@H](Cc1ccccc1)NC(=O)[C@@H](NC(=O)CNC(=O)[C@H](CC(=O)O)NC(=O)C(C)(C)NC(=O)[C@@H](N)Cc1c[nH]cn1)[C@@H](C)O)[C@@H](C)CC)[C@@H](C)O)[C@@H](C)CC)[C@@H](C)CC)[C@@H](C)O)[C@@H](C)CC)[C@@H](C)O)C(N)=O [Compound 13] (H-H[Aib]DGTFISDYSTELDNLAARDFINWLIQTKITK(Decanoyl)-NH2) | – | –
92 | 91 | – | 96 | – | – | CCCCCCCCCC(=O)NCCCC[C@H](NC(=O)[C@H](CCCCN)NC(=O)CNC(=O)[C@H](CCCCN)NC(=O)[C@@H](NC(=O)[C@H](CCC(N)=O)NC(=O)[C@@H](NC(=O)[C@H](CC(C)C)NC(=O)[C@H](Cc1c[nH]c2ccccc12)NC(=O)[C@H](CC(N)=O)NC(=O)[C@@H](NC(=O)[C@H](Cc1ccccc1)NC(=O)[C@H](CC(=O)O)NC(=O)[C@H](CCCNC(=N)N)NC(=O)[C@H](C)NC(=O)[C@H](C)NC(=O)[C@H](CC(C)C)NC(=O)[C@H](CC(N)=O)NC(=O)[C@H](CC(=O)O)NC(=O)[C@H](CC(C)C)NC(=O)[C@@H](NC(=O)[C@@H](NC(=O)[C@H](CO)NC(=O)[C@H](Cc1ccc(O)cc1)NC(=O)[C@H](CC(=O)O)NC(=O)[C@H](CO)NC(=O)[C@@H](NC(=O)[C@H](Cc1ccccc1)NC(=O)[C@@H](NC(=O)CNC(=O)[C@H](CC(=O)O)NC(=O)C(C)(C)NC(=O)[C@@H](N)Cc1c[nH]cn1)[C@@H](C)O)[C@@H](C)CC)[C@@H](C)O)[C@@H](C)CC)[C@@H](C)CC)[C@@H](C)CC)[C@@H](C)O)C(N)=O [Compound 14] (H-H[Aib]DGTFISDYSTILDNLAARDFINWLIQTKGKK(Decanoyl)-NH2) | – | –

SMILES | Emax (human GLP-2R) [%] | Emax (human GIPR) [%] | EC50 (human GIPR; cAMP, COS-7 cells, human GIPR) [nM] | Emax (human GLP-1R) [%] | EC50 (human GLP-1R; [1]) [nM] | EC50 (human GLP-2R; [2]) [nM] | EC50 (human GLP-2R) [nM] | EC50 (human GLP-1R) [nM]
CCCCCCCCCC(=O)NCCCC[C@H](NC(=O)[C@@H](NC(=O)[C@@H](NC(=O)[C@H](CCCCN)NC(=O)[C@@H](NC(=O)[C@H](CCC(N)=O)NC(=O)[C@@H](NC(=O)[C@H](CC(C)C)NC(=O)[C@H](Cc1c[nH]c2ccccc12)NC(=O)[C@H](CC(N)=O)NC(=O)[C@@H](NC(=O)[C@H](Cc1ccccc1)NC(=O)[C@H](CC(=O)O)NC(=O)[C@H](CCCNC(=N)N)NC(=O)[C@H](C)NC(=O)[C@H](C)NC(=O)[C@H](CC(C)C)NC(=O)[C@H](CC(N)=O)NC(=O)[C@H](CC(=O)O)NC(=O)[C@H](CC(C)C)NC(=O)[C@@H](NC(=O)[C@@H](NC(=O)[C@H](CO)NC(=O)[C@H](Cc1ccc(O)cc1)NC(=O)[C@H](CC(=O)O)NC(=O)[C@H](CO)NC(=O)[C@@H](NC(=O)[C@H](Cc1ccccc1)NC(=O)[C@@H](NC(=O)CNC(=O)[C@H](CC(=O)O)NC(=O)C(C)(C)NC(=O)[C@@H](N)Cc1c[nH]cn1)[C@@H](C)O)[C@@H](C)CC)[C@@H](C)CC)[C@@H](C)CC)[C@@H](C)CC)[C@@H](C)CC)[C@@H](C)O)[C@@H](C)CC)[C@@H](C)O)C(N)=O [Compound 10] (H-H[Aib]DGTFISDYSIILDNLAARDFINWLIQTKITK(Decanoyl)-NH2) | 103 | 127 | – | 99 | – | – | 11.2 | 3.98
CCCCCCCCCC(=O)NCCCC[C@H](NC(=O)[C@@H](NC(=O)[C@@H](NC(=O)[C@H](CCCCN)NC(=O)[C@@H](NC(=O)[C@H](CCC(N)=O)NC(=O)[C@@H](NC(=O)[C@H](CC(C)C)NC(=O)[C@H](Cc1c[nH]c2ccccc12)NC(=O)[C@H](CC(N)=O)NC(=O)[C@@H](NC(=O)[C@H](Cc1ccccc1)NC(=O)[C@H](CC(=O)O)NC(=O)[C@H](CCCNC(=N)N)NC(=O)[C@H](C)NC(=O)[C@H](C)NC(=O)[C@H](CC(C)C)NC(=O)[C@H](CC(N)=O)NC(=O)[C@H](CC(=O)O)NC(=O)[C@H](CC(C)C)NC(=O)[C@@H](NC(=O)[C@@H](NC(=O)[C@H](CO)NC(=O)[C@H](Cc1ccc(O)cc1)NC(=O)[C@H](CC(=O)O)NC(=O)[C@H](CO)NC(=O)[C@@H](NC(=O)[C@H](Cc1ccccc1)NC(=O)[C@@H](NC(=O)CNC(=O)[C@H](CCC(=O)O)NC(=O)C(C)(C)NC(=O)[C@@H](N)Cc1c[nH]cn1)[C@@H](C)O)[C@@H](C)CC)[C@@H](C)O)[C@@H](C)CC)[C@@H](C)CC)[C@@H](C)CC)[C@@H](C)O)[C@@H](C)CC)[C@@H](C)O)C(N)=O [Compound 11] (H-H[Aib]EGTFISDYSTILDNLAARDFINWLIQTKITK(Decanoyl)-NH2) | 68 | 89 | – | 76 | – | 25.1 | – | –
